Measurements published in patent publication US20260226417A1, “METHOD FOR INHIBITING AGING OF STEM CELLS” (ENCELL CO., LTD, priority 2023, published 2026).

Assays:
[1] = test system: control cells (P5), human umbilical cord-derived mesenchymal stem cells; assay: Cytotoxicity by CCK-8 assay, control cells (P5); assay type: cell-based; details: 160 μM
[2] = test system: human-derived mesenchymal stem cells, control cells (P5) subcultured to P10; assay: β-galactosidase staining during serial subculture P5 to P10 with treatment at each passage; assay type: cell-based; details: 160 μM for 24 hours at each passage
Procedure: (§1) Example 8. Confirmation Of anti-senescence efficacy by treating various human tissue-derived mesenchymal stem cells with nervonic acid Human-derived mesenchymal stem cells were treated with nervonic acid (160 μM) at each passage during cell culture from control cells (P5) to P10 to determine whether continuous treatment with nervonic acid during cell culture at early passage numbers was able to delay cellular senescence.
(§2) Specifically, from the day after human-derived mesenchymal stem cells were subcultured, treatment with 160 μM nervonic acid or an equivalent amount of DMSO (control) for 24 hours was performed, followed by replacement with the existing culture medium the next day. The above process was repeated to perform subculture up to P10 (passage 10). As such, B galactosidase staining for measuring cellular senescence was performed at P7, P8, P9, and P10, and cell doubling time and RNA extraction for qRT-PCR were both performed at P10. A more specific procedure therefor was carried out in the same manner as described above.

[3] = test system: replicative senescence model of human umbilical cord-derived mesenchymal stem cells (P18); assay: Cytotoxicity by CCK-8 assay, replicative senescence model (P18); assay type: cell-based; details: 160 μM, P18, CCK-8
[4] = test system: senescence markers P16 and P21; assay: qRT-PCR of senescence markers P16 and P21 in replicative senescence model (P18); assay type: cell-based, human; details: 160 μM, 3 days
Procedure: In order to verify the anti-senescence efficacy of nervonic acid, the expression levels of senescence-related markers in a control group (P5) and a replicative senescence model (P18) were measured after treatment with nervonic acid (160 μM).
Specifically, qRT-PCR performed in this example is as follows: after treating the replicative senescence model (P18) with nervonic acid for 3 days, total RNA was extracted using Trizol (Invitrogen, MA, USA) according to the method provided by the vendor. After quantifying the extracted total RNA, random hexamer and dNTP were added, and PCR was performed at 65° C. for 5 minutes. 5× SSIV buffer, 100 mM DTT, RNAse OUT, and Superscript IV RT were added and reverse transcription was performed to synthesize cDNA, and then qRT-PCR was performed to measure gene expression, and the expression levels were compared through 2^−ΔΔCt analysis.

[5] = test system: human-derived mesenchymal stem cells, control cells (P5) subcultured to P10; assay: Doubling time by CCK-8 assay at P10 after treatment at each passage; assay type: cell-based; details: 160 μM for 24 hours at each passage, at P10, CCK-8
Procedure: as §1, §2
Also, the doubling time of the control group (DMSO) and the nervonic acid treatment group was measured using CCK (cell counting kit)-8 assay.

CCCCCCCC/C=C\CCCCCCCCCCCCCC(=O)O [nervonic acid]
change in cell viability [1]: no change in cell viability | extent of senescence (β-galactosidase staining), fold compared to DMSO control at P10 [2]: 0.40±0.07 fold | cell viability, fold decrease compared to before treatment [3]: 0.68±0.03 fold | P16 mRNA level, fold compared to before treatment [4]: 0.78±0.01 fold | P21 mRNA level, fold compared to before treatment [4]: 0.82±0.02 fold | doubling time [5]: 24.7 h
